Reference: patent US6620828B2, “Thiazole compounds and pharmaceutical compositions for inhibiting protein kinases and methods for their use” (Agouron Pharmaceuticals, Inc., priority 1999, dated 2003)

What was measured:
Assay type in all cases: biochemical
[1] = biological target: T1, phosphorylated VEGF-R2Δ50 (FLVK-P) (Homo sapiens, UniProt P35968, DEL940-989/E990V); experiment: VEGF-R2 coupled spectrophotometric (FLVK-P) assay; details: combinatorial library compounds; for inhibition at 20 µM: read-out: VEGF % inhibition at 20 μM, 20 μM
T1 construct: VEGF-R2Δ50 contains residues 806-939 and 990-1171; made in house; host or cells: baculovirus/insect cells
How it was run: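 Baculovirus-expressed human VEGF-R2Δ50 (residues 806-939/990-1171, E990V) was autophosphorylated with 3 mM ATP, 40 mM MgCl2 for 2 h at 4° C. ADP formation was coupled via PK/LDH to NADH oxidation, read at 340 nm, with 5.1 mM poly(E4Y1), 1 mM ATP, 25 mM MgCl2, Hepes pH 7.5. Ki came from activity across compound concentrations.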

[2] = biological target: T2, FL-CHK1 (Homo sapiens, UniProt O14757); experiment: CHK1 assay; details: 20 μM; combinatorial library compounds
T2 construct: C-terminally His-tagged full-length human CHK1 (FL-CHK1); 6xHis (C); made in house; host or cells: baculovirus/insect cells
T2 sequence (O14757 1-476): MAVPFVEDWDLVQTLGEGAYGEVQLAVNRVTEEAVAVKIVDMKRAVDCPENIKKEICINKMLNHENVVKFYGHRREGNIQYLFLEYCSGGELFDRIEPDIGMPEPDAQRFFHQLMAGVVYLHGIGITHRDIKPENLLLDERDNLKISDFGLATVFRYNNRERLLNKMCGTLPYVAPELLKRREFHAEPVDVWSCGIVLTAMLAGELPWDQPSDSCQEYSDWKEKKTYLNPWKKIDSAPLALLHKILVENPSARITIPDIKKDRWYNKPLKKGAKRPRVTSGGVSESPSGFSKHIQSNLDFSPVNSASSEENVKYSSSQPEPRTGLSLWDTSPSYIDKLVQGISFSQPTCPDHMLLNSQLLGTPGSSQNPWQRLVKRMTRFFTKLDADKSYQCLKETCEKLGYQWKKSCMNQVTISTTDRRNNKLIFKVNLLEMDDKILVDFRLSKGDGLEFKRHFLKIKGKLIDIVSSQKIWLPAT
How it was run: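 Full-length human CHK1 with C-terminal 6×His tag, made in baculovirus/insect cells, 10 nM, phosphorylating 0.125 mM Syntide-2 with 0.15 mM ATP in 50 mM Tris pH 7.5, 25 mM MgCl2, 400 mM NaCl. PK/LDH-coupled NADH oxidation read at 340 nm. Ki from initial rates over varied compound concentrations.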

[3] = biological target: CDK2/Cyclin A complex (Homo sapiens, UniProt P24941); experiment: CDK2/Cyclin A assay; details: 1.0 μM; combinatorial library compounds
How it was run: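 Radiometric assay: 150 nM CDK2/cyclin A (insect-cell CDK2, truncated cyclin A) phosphorylates His-tagged Rb fragment (residues 386-928) with 25 μM ATP plus [32P]ATP, pH 7.4 HEPES, 2% DMSO, 30 °C for 20 min. Filter-captured product counted by phosphorimager; apparent Ki from competitive or tight-binding inhibition fits.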

[4] = biological target: T3, CDK4/Cyclin D3 complex (Homo sapiens, UniProt P11802); experiment: CDK4/Cyclin D assay; details: 1.0 μM; combinatorial library compounds
T3 construct: made in house; host or cells: insect cells co-infected with baculovirus vectors
How it was run: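 Insect-cell-expressed CDK4/cyclin D3 (50 nM) phosphorylating His-tagged Rb fragment (residues 386-928) with 25 μM [^32P]ATP in HEPES pH 7.4, MgCl2, 2% DMSO; 20 min at 30 °C, EDTA stop. Filter-captured 32P by phosphorimager; apparent Ki from competitive or tight-binding inhibition fits.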

T3 sequence (P11802 whole entry): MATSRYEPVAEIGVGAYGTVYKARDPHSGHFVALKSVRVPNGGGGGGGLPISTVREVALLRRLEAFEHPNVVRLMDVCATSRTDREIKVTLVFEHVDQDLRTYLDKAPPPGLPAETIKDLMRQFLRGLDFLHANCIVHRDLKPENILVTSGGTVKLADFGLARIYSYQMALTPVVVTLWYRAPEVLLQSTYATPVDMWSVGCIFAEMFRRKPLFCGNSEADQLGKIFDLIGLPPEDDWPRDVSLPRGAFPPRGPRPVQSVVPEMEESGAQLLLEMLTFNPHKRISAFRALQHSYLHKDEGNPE
T3 sequence (P30281 whole entry partner): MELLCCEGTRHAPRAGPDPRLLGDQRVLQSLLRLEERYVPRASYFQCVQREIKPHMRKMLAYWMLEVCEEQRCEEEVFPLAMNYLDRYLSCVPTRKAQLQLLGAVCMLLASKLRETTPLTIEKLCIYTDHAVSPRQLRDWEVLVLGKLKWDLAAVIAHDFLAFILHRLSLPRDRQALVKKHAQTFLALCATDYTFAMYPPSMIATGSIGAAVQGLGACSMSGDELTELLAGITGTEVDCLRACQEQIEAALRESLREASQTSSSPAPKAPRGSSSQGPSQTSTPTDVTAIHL
T1 sequence (P35968 with tags, fused parts or gaps DEL940-989/E990V limits assumed): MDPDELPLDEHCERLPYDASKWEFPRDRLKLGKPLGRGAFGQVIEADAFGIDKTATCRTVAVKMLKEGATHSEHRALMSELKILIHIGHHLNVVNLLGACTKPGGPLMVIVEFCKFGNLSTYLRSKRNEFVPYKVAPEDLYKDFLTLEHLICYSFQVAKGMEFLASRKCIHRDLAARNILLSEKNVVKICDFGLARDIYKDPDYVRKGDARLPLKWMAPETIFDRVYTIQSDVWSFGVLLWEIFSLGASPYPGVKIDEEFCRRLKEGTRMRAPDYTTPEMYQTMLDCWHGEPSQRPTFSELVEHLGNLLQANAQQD

inhibition at 20 µM [1]	inhibition at 20 µM [2]	inhibition at 1 µM [3]	inhibition at 1 µM [4]	VEGF % inhibition at 20 μM [1]	CHK1 % Inhibition at 20 μM [2]	CDK2 % Inhibition at 1.0 μM [3]	CDK4 % Inhibition at 1.0 μM [4]	SMILES
47%	32.3%	38.6%	79.6%					Cc1c(-c2csc(-c3sc(Nc4ccc(C(C)C)cc4)nc3N)n2)sc2ccc(Cl)cc12 [drawing 487]
36%	41.1%	24.1%	69.3%					COc1cc(OC)c(-c2csc(-c3sc(Nc4ccc(N(C)C)cc4)nc3N)n2)c(O)c1Cl
27%	29.3%	38.3%	63.5%					CN(C)c1ccc(Nc2nc(N)c(-c3nc(-c4ccc5oc6ccccc6c5c4)cs3)s2)cc1
33%	13%	21.8%	61.8%					CC(C)c1ccc(Nc2nc(N)c(-c3nc(-c4ccc(CC(=O)O)s4)cs3)s2)cc1
5%	10.9%	21.2%	39.5%					CC(C)c1ccc(Nc2nc(N)c(-c3nc(-c4ccc(F)c(F)c4)cs3)s2)cc1
				23%	34.8%	29.8%	83%	COc1ccc(-c2csc(-c3sc(Nc4ccc(N(C)C)cc4)nc3N)n2)cc1 [drawing 551]
16%	23.3%	0.6%	57.5%					CN(C)c1ccc(Nc2nc(N)c(-c3nc(-c4cccc(OC(=O)c5ccccc5)c4)cs3)s2)cc1
26%	26%	29.2%	81.6%					CCOC(=O)c1ccccc1-c1csc(-c2sc(Nc3ccc(C(C)C)cc3)nc2N)n1
18%	22.8%	17.6%	69.1%					CN(C)c1ccc(Nc2nc(N)c(-c3nc(-c4cc(Br)c(Cl)s4)cs3)s2)cc1
16%	15.2%	17.7%	61.6%					Cc1ccc(-c2csc(-c3sc(Nc4ccc(N(C)C)cc4)nc3N)n2)cc1
				22%	0.2%	18.5%	59.4%	CC(C)c1ccc(Nc2nc(N)c(-c3nc(-c4ccccc4)cs3)s2)cc1 [drawing 498]
32%	14.7%	63%	79.2%					Nc1nc(Nc2ccc(S(N)(=O)=O)cc2)sc1-c1nc(-c2ccc(Cl)cc2Cl)cs1 [drawing 406]
33%	29%	77.2%	64.1%					Cc1c(C)c(C)c(-c2csc(-c3sc(Nc4ccc(S(N)(=O)=O)cc4)nc3N)n2)c(C)c1C
-8%	9.5%	-6%	36.2%					CCCCCc1ccc(-c2csc(-c3sc(Nc4ccc(N(C)C)cc4)nc3N)n2)cc1
34%	26.6%	68.2%	59.6%					Cc1cc(-c2csc(-c3sc(Nc4ccc(S(N)(=O)=O)cc4)nc3N)n2)cs1
2%	4.2%	4.5%	-3.6%					Nc1nc(Nc2ccc(S(N)(=O)=O)cc2)sc1-c1nc(-c2ccc(C(F)(F)F)cc2)cs1
-2%	7.2%	24.7%	35.3%					CC(C)c1ccc(Nc2nc(N)c(-c3nc(-c4cccc([N+](=O)[O-])c4)cs3)s2)cc1
41%	41.7%	34.8%	56%					CN(C)c1ccc(Nc2nc(N)c(-c3nc(-c4ccc(F)cc4)cs3)s2)cc1

inhibition at 20 µM [1]	inhibition at 20 µM [2]	inhibition at 1 µM [3]	inhibition at 1 µM [4]	VEGF % inhibition at 20 μM [1]	CHK1 % Inhibition at 20 μM [2]	CDK2 % Inhibition at 1.0 μM [3]	CDK4 % Inhibition at 1.0 μM [4]	SMILES
		23.3%		−4%	4%		−42.5%	CC(C)c1ccc(Nc2nc(N)c(-c3nc(-c4ccccc4)cs3)s2)cc1 [drawing 484]
23%	11.2%					8.2%	−33.4%	Nc1nc(Nc2ccc(S(N)(=O)=O)cc2)sc1-c1nc(-c2ccccc2)cs1 [drawing 421]
0%	5.1%	9.2%	-6.5%					CN(C)c1ccc(Nc2nc(N)c(-c3nc(-c4ccc(Cl)c(Cl)c4)cs3)s2)cc1
3%	-3.9%	12.5%	-1.2%					COc1ccc(-c2csc(-c3sc(Nc4ccc(S(N)(=O)=O)cc4)nc3N)n2)c(OC)c1
50%	27.4%	17.5%	76.5%					Cc1cc(-c2csc(-c3sc(Nc4ccc(C(C)C)cc4)nc3N)n2)c(C)s1
8%	4.2%	3.3%	8.1%					CN(C)c1ccc(Nc2nc(N)c(-c3nc(-c4ccc(F)c(F)c4)cs3)s2)cc1
-1%	-1.2%	12%	-0.5%					Nc1nc(Nc2ccc(S(N)(=O)=O)cc2)sc1-c1nc(-c2cc(-c3ccccc3)no2)cs1
46%	19.7%	30.6%	91.5%					CC(C)c1ccc(Nc2nc(N)c(-c3nc(-c4ccc(F)cc4F)cs3)s2)cc1
34%	25.2%	20.3%	64.3%					CN(C)c1ccc(Nc2nc(N)c(-c3nc(-c4ccc(F)cc4F)cs3)s2)cc1
-3%	12.3%	11.2%	-11.3%					Nc1nc(Nc2ccc(S(N)(=O)=O)cc2)sc1-c1nc(-c2ccc(-c3ccccc3)cc2)cs1 [drawing 404]
-4%	13.6%	16.6%	-15%					Nc1nc(Nc2ccc(S(N)(=O)=O)cc2)sc1-c1nc(-c2cc3cc(Cl)ccc3o2)cs1
45%	5.1%	14.1%	74.6%					Cc1cc(-c2csc(-c3sc(Nc4ccc(C(C)C)cc4)nc3N)n2)cc(C)c1O
				30%	17.5%	19.7%	65.1%	CN(C)c1ccc(Nc2nc(N)c(-c3nc(-c4ccccc4)cs3)s2)cc1 [drawing 561]
-10%	1.8%	-22.6%	38.2%					COc1ccc(-c2csc(-c3sc(Nc4ccc(C(C)C)cc4)nc3N)n2)c(OC)c1
6%	7.9%	60.5%	56.4%					Nc1nc(Nc2ccc(S(N)(=O)=O)cc2)sc1-c1nc(-c2cc(Br)c(Cl)s2)cs1
25%	38.5%	19.8%	45.9%					CCOC(=O)c1ccccc1-c1csc(-c2sc(Nc3ccc(N(C)C)cc3)nc2N)n1
15%	14.1%	26%	85.1%					COc1ccc2nc(-c3ccccc3)c(-c3csc(-c4sc(Nc5ccc(C(C)C)cc5)nc4N)n3)cc2c1
56%	18.7%	57.9%	51.3%					Nc1nc(Nc2ccc(S(N)(=O)=O)cc2)sc1-c1nc(-c2ccc(O)cc2)cs1 [drawing 415]
